From ChEMBL document CHEMBL1135794, “Looking for selectivity among cytochrome P450s inhibitors” (J Med Chem, 2002) come the findings set out here.

For data set [1], the target named is T1, Steroid 17-alpha-hydroxylase/17,20 lyase (Homo sapiens, UniProt P05093).
T1 sequence (P05093 whole entry): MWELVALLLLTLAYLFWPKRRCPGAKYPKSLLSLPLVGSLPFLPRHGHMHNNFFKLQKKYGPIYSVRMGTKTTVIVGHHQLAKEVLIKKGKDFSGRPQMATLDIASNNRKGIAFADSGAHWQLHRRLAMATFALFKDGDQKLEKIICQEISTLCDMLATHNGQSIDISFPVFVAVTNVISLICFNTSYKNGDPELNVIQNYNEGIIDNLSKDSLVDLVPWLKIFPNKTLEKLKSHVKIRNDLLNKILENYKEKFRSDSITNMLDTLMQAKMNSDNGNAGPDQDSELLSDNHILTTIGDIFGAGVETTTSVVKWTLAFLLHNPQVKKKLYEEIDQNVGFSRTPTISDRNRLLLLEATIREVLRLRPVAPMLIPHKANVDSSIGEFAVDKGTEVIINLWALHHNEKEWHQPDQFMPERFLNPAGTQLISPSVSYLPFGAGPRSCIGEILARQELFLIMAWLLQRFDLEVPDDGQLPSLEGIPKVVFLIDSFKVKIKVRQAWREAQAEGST
Kind of data set: Inhibition of Cytochrome P450 17; Inactive.

Data set [2] has as its target T1, Steroid 17-alpha-hydroxylase/17,20 lyase. Nature of the data set: Inhibition of Cytochrome P450 17.

With `N#Cc1ccc(Cn2ccnc2)c2oc3ccccc3c(=O)c12`, the IA result in data set [1] is “Not Active”. Compound `O=c1c2ccccc2oc2c(Br)ccc(Cn3ccnc3)c12` showed an Inhibition in data set [2] of 42 nM.
